Data from US7186743B2, “Substituted pyrazolyl compounds for the treatment of inflammation” (Pharmacia Corporation, priority 2001, dated 2007).
Where a name gives a salt, the structure may show the parent alone.

What follows are molecules tested against T1, IKK2 (Homo sapiens, UniProt O14920) (assay: IKKβ Resin Enzyme Assay (IKK2 resin)). Conditions: Table 15; read-out: IKK2 Resin IC50.
T1 construct: made in house; host or cells: insect cells (baculovirus, pFastBac; SF9)
T1 sequence (O14920 1-756): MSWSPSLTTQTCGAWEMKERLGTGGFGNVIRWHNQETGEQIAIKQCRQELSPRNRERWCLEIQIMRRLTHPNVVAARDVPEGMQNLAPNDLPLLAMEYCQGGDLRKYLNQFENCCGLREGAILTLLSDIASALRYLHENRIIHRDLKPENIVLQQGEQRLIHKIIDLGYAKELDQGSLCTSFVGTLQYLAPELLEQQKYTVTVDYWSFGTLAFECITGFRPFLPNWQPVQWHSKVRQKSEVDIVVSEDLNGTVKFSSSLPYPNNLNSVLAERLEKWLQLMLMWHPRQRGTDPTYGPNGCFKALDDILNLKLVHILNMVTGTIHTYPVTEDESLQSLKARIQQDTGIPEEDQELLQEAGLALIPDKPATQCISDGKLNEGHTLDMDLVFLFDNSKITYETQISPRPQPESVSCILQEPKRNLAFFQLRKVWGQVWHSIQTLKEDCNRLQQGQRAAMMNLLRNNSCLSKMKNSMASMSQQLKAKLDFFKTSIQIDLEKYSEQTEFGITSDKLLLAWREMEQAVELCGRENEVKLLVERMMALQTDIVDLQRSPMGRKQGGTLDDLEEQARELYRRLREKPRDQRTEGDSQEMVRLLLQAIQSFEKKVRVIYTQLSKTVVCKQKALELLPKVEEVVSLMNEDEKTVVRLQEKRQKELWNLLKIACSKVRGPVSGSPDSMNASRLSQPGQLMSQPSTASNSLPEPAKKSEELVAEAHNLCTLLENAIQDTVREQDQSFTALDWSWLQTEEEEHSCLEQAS
Format: biochemical
Summary of the method: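 Enzyme: human IKK2 with a C-terminal FLAG tag, baculovirus-expressed, purified as homodimer on anti-FLAG resin. It phosphorylates a biotinylated IκBα peptide with 1 μM ATP plus [γ-33P]ATP in 25 mM Hepes pH 7.6, Mg/Mn, for 30 min at 25° C. Incorporation is counted by scintillation after anion-exchange resin stop.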

Structure (SMILES) | IC50 [nM]
NC(=O)c1nn(-c2ccc(N)cc2)c2c1CCc1ccc(NC(=O)c3ccccc3Cl)cc1-2 [Example 370, 1-(4-aminophenyl)-8-[(2-chlorobenzoyl)amino]-4,5-dihydro-1H-benzo[g]indazole-3-carboxamide] | ≤ 1000
CC(=O)Nc1ccc(-n2nc(C(N)=O)c3c2-c2cc(NC(=O)c4ccccc4Cl)ccc2CC3)cc1 [Example 371, 1-[4-(acetylamino)phenyl]-8-[(2-chlorobenzoyl)amino]-4,5-dihydro-1H-benzo[g]indazole-3-carboxamide] | ≤ 1000
CS(=O)(=O)Nc1ccc(-n2nc(C(N)=O)c3c2-c2cc(NC(=O)c4ccccc4Cl)ccc2CC3)cc1 [Example 372, 8-[(2-chlorobenzoyl)amino]-1-{4-[(methylsulfonyl)amino]phenyl}-4,5-dihydro-1H-benzo[g]indazole-3-carboxamide] | ≤ 1000
COCC(=O)Nc1ccc(-n2nc(C(N)=O)c3c2-c2cc(NC(=O)c4ccccc4Cl)ccc2CC3)cc1 [Example 374, 8-[(2-chlorobenzoyl)amino]-1-{4-[(methoxyacetyl)amino]phenyl}-4,5-dihydro-1H-benzo[g]indazole-3-carboxamide] | ≤ 1000
NC(=O)c1nn(-c2cccc(N)c2)c2c1CCc1ccc(NC(=O)c3ccccc3Cl)cc1-2 [Example 375, 1-(3-aminophenyl)-8-[(2-chlorobenzoyl)amino]-4,5-dihydro-1H-benzo[g]indazole-3-carboxamide] | ≤ 1000
CN(C)CCNC(=O)c1ccc(-n2nc(C(N)=O)c3c2-c2cc(NC(=O)c4ccccc4Cl)ccc2CC3)cc1 [Example 380, 8-[(2-chlorobenzoyl)amino]-1-[4-({[2-(dimethylamino)ethyl]amino}carbonyl)phenyl]-4,5-dihydro-1H-benzo[g]indazole-3-carboxamide hydrochloride] | 1000 to 10000

Same assay, conditions: Table 17; read-out: IKK2 Resin IC50

Structure (SMILES) | IC50 [nM]
NC(=O)c1nn(-c2ccc(C#CCO)cc2)c2c1CCc1ccc(NC(=O)c3cccnc3Cl)cc1-2 [Example 386, 8-{[(2-chloropyridin-3-yl)carbonyl]amino}-1-[4-(3-hydroxyprop-1-ynyl)phenyl]-4,5-dihydro-1H-benzo[g]indazole-3-carboxamide] | ≤ 1000
NC(=O)c1nn(-c2ccc(C#CCCCO)cc2)c2c1CCc1ccc(NC(=O)c3cccnc3Cl)cc1-2 [Example 387, 8-{[(2-chloropyridin-3-yl)carbonyl]amino}-1-[4-(5-hydroxypent-1-ynyl)phenyl]-4,5-dihydro-1H-benzo[g]indazole-3-carboxamide] | ≤ 1000
C=Cc1ccc(-n2nc(C(N)=O)c3c2-c2cc(NC(=O)c4cccnc4Cl)ccc2CC3)cc1 [Example 389, 8-{[(2-chloropyridin-3-yl)carbonyl]amino}-1-(4-vinylphenyl)-4,5-dihydro-1H-benzo[g]indazole-3-carboxamide] | ≤ 1000

Same assay, conditions: Table 18; read-out: IKK2 Resin IC50

Structure (SMILES) | IC50 [nM]
CCS(=O)(=O)c1ccc(-n2nc(C(N)=O)c3c2-c2cc(NC(=O)c4cc(NC(C)=O)ccc4Cl)ccc2CC3)cc1 [Example 392, 8-{[5-(acetylamino)-2-chlorobenzoyl]amino}-1-[4-(ethylsulfonyl)phenyl]-4,5-dihydro-1H-benzo[g]indazole-3-carboxamide] | ≤ 1000
CC(C)S(=O)(=O)c1ccc(-n2nc(C(N)=O)c3c2-c2cc(NC(=O)c4ccccc4Cl)ccc2CC3)cc1 [Example 393, 8-[(2-chlorobenzoyl)amino]-1-[4-(isopropylsulfonyl)phenyl]-4,5-dihydro-1H-benzo[g]indazole-3-carboxamide] | ≤ 1000
CCS(=O)(=O)c1ccc(-n2nc(C(N)=O)c3c2-c2cc(NC(=O)c4ccccc4Cl)ccc2CC3)cc1 [Example 395, 8-[(2-chlorobenzoyl)amino]-1-[4-(ethylsulfonyl)phenyl]-4,5-dihydro-1H-benzo[g]indazole-3-carboxamide] | ≤ 1000
CCS(=O)(=O)c1ccc(-n2nc(C(N)=O)c3c2-c2cc(NC(=O)c4cccnc4Cl)ccc2CC3)cc1 [Example 396, 8-{[(2-chloropyridin-3-yl)carbonyl]amino}-1-[4-(ethylsulfonyl)phenyl]-4,5-dihydro-1H-benzo[g]indazole-3-carboxamide] | ≤ 1000
CCS(=O)(=O)c1ccc(-n2nc(C(N)=O)c3c2-c2cc(NC(=O)c4cc(NC(=O)OC(C)(C)C)ccc4Cl)ccc2CC3)cc1 [Example 397, tert-butyl 3-[({3-(aminocarbonyl)-1-[4-(ethylsulfonyl)phenyl]-4,5-dihydro-1H-benzo[g]indazol-8-yl}amino)carbonyl]-4-chlorophenylcarbamate] | ≤ 1000
CCS(=O)(=O)c1ccc(-n2nc(C(N)=O)c3c2-c2cc(NC(=O)c4cc(N)ccc4Cl)ccc2CC3)cc1 [Example 398, 8-[(5-amino-2-chlorobenzoyl)amino]-1-[4-(ethylsulfonyl)phenyl]-4,5-dihydro-1H-benzo[g]indazole-3-carboxamide] | ≤ 1000
CCCS(=O)(=O)c1ccc(-n2nc(C(N)=O)c3c2-c2cc(NC(=O)c4ccccc4Cl)ccc2CC3)cc1 [Example 400, 8-[(2-chlorobenzoyl)amino]-1-[4-(propylsulfonyl)phenyl]-4,5-dihydro-1H-benzo[g]indazole-3-carboxamide] | ≤ 1000
NCCCS(=O)(=O)c1ccc(-n2nc(C(N)=O)c3c2-c2cc(NC(=O)c4ccccc4Cl)ccc2CC3)cc1 [Example 404, 1-{4-[(3-aminopropyl)sulfonyl]phenyl}-8-[(2-chlorobenzoyl)amino]-4,5-dihydro-1H-benzo[g]indazole-3-carboxamide hydrochloride] | ≤ 1000

Same assay, conditions: Table 19; read-out: IKK2 Resin IC50

Structure (SMILES) | IC50 [nM]
CSc1ccc(-n2nc(C(N)=O)c3c2-c2cc(NS(C)(=O)=O)ccc2CC3)cc1 [Example 411, 8-[(methylsulfonyl)amino]-1-[4-(methylthio)phenyl]-4,5-dihydro-1H-benzo[g]indazole-3-carboxamide] | ≤ 1000
CSc1ccc(-n2nc(C(N)=O)c3c2-c2cc(NC(=O)c4ccncc4Cl)ccc2CC3)cc1 [Example 412, 8-[(3-chloroisonicotinoyl)amino]-1-[4-(methylthio)phenyl]-4,5-dihydro-1H-benzo[g]indazole-3-carboxamide hydrochloride] | ≤ 1000
CSc1ccc(-n2nc(C(N)=O)c3c2-c2cc(NC(=O)c4cc5c(cc4Cl)OCO5)ccc2CC3)cc1 [Example 413, 8-{[(6-chloro-1,3-benzodioxol-5-yl)carbonyl]amino}-1-[4-(methylthio)phenyl]-4,5-dihydro-1H-benzo[g]indazole-3-carboxamide] | ≤ 1000
CSc1ccc(-n2nc(C(N)=O)c3c2-c2cc(NC(=O)c4cc(N)ccc4Cl)ccc2CC3)cc1 [Example 414, 8-[(5-amino-2-chlorobenzoyl)amino]-1-[4-(methylthio)phenyl]-4,5-dihydro-1H-benzo[g]indazole-3-carboxamide hydrochloride] | ≤ 1000

Same assay, conditions: Table for Examples 381-385 (headed TABLE 14); read-out: IKK2 Resin IC50

Structure (SMILES) | IC50 [nM]
NC(=O)c1nn(-c2ccc(N)nc2)c2c1CCc1ccc(NC(=O)c3ccncc3Cl)cc1-2 [Example 381, 1-(6-aminopyridin-3-yl)-8-[(3-chloroisonicotinoyl)amino]-4,5-dihydro-1H-benzo[g]indazole-3-carboxamide] | ≤ 1000
NC(=O)c1nn(-c2cccs2)c2c1CCc1ccc(NC(=O)c3ccncc3Cl)cc1-2 [Example 382, 8-[(3-chloroisonicotinoyl)amino]-1-thien-2-yl-4,5-dihydro-1H-benzo[g]indazole-3-carboxamide] | ≤ 1000
NC(=O)c1nn(-c2ccsc2)c2c1CCc1ccc(NC(=O)c3ccncc3Cl)cc1-2 [Example 383, 8-[(3-chloroisonicotinoyl)amino]-1-thien-3-yl-4,5-dihydro-1H-benzo[g]indazole-3-carboxamide] | ≤ 1000

Same assay, conditions: read-out: IKK-2 resin IC50

Structure (SMILES) | IC50 [nM]
CS(=O)(=O)c1ccc(-n2nc(C(N)=O)c3c2-c2cc(NC(=O)c4ccccc4Cl)ccc2CC3)nc1 [Example 367, 8-[(2-chlorobenzoyl)amino]-1-[5-(methylsulfonyl)pyridin-2-yl]-4,5-dihydro-1H-benzo[g]indazole-3-carboxamide] | ≤ 1000
CS(=O)(=O)c1ccc(-n2nc(C(N)=O)c3c2-c2cc(NC(=O)c4ccccc4Cl)ccc2CC3)cn1 [Example 368, 8-[(2-chlorobenzoyl)amino]-1-[6-(methylsulfonyl)pyridin-3-yl]-4,5-dihydro-1H-benzo[g]indazole-3-carboxamide] | ≤ 1000
N#Cc1ccc(-n2nc(C(N)=O)c3c2-c2cc(NC(=O)c4ccccc4Cl)ccc2CC3)cc1 [Example 369, 8-[(2-chlorobenzoyl)amino]-1-(4-cyanophenyl)-4,5-dihydro-1H-benzo[g]indazole-3-carboxamide] | ≤ 1000
C=CCNS(=O)(=O)c1ccc(-n2nc(C(N)=O)c3c2-c2cc(NC(=O)c4ccccc4Cl)ccc2CC3)cc1 [Example 421, 1-{4-[(allylamino)sulfonyl]phenyl}-8-[(2-chlorobenzoyl)amino]-4,5-dihydro-1H-benzo[g]indazole-3-carboxamide] | ≤ 1000
